Measured values: paper PMC10544018 (Journal of Medicinal Chemistry, 2023)

Experiments:
[1] = Log D7.4 measurement by chromatographic method; assay type: physicochemical; conditions: experimental distribution coefficient at pH 7.4; read-out: e log D7.4
Protocol: (§1) Both were experimentally obtained employing HPLC-based protocols.[39],[40] […] PPB values were determined in view of how they could impact future pharmacokinetic studies of compounds as VHL inhibitors, or once conjugated into bifunctional PROTACs, for which PPB can be a limiting factor.
The determination of the log D7.4 values was performed by a chromatographic method as described previously.[41],[62] […] Subsequently, the mean retention times (n = 2) of the analytes were taken to calculate their log D7.4 values.

VCB protein = biological target: T1, VCB protein (Homo sapiens, UniProt P40337); assay: Competitive fluorescence polarization (FP) binding assay, displacement of FAM-labeled HIF-1α peptide; conditions: for Kd: dissociation constant, determined by FP, mean ± S.E.M., back-calculated from IC50; for IC50: mean IC50 values obtained from the FP assay, read-out: IC50 ± S.E.M, FP assay
T1 construct: A plasmid containing pVHL54–213 with an N-terminal His6 tag; His6 (N, cleaved yes); made in house; host or cells: Escherichia coli BL21 (DE3)
Protocol: Binding of a ligand to the HIF binding site of VHL displaces a fluorescein-labeled, 19-mer HIF-1α oligopeptide, leading to a change in polarization of emitted light upon excitation of the competing fluorescent probe.
All components were dissolved from stock solutions using 100 mM Bis–Tris, 100 mM NaCl, 1 mM DTT, pH 7.0, to yield a final assay volume of 15 μL. DMSO was added as appropriate to ensure a final concentration of 2% (v/v). Control wells containing VCB and JC9 with no compound (zero displacement), or JC9, in the absence of protein (maximum displacement) were also included to allow for normalization. Percentage displacement values were obtained by normalization of controls and were plotted against log[compound]. The IC50 values were determined for each titration using non-linear regression analysis with Prism GraphPad (Table S1). Dissociation constants Kd for the compound–VCB interaction were back-calculated from the measured IC50 values by using a displacement binding model as described.[16],[64]

human serum albumin = human serum albumin (Homo sapiens, UniProt P02768); assay: PPB studies on HSA HPLC column; assay type: in vitro ADME; conditions: CHIRALPAK HSA HPLC column (human serum albumin); experimentally determined percentage of the compound bound to human serum albumin
Protocol: as §1
PPB was estimated by correlating the logarithmic retention times of the analytes on a […] HSA 50 × 3 mm, 5 μm column with the literature-known % PPB values (converted into log K values) of the following drugs: warfarin, ketoprofen, budesonide, nizatidine, indomethacin, acetylsalicylic acid, carbamazepine, piroxicam, nicardipine, and cimetidine.[63] Samples were dissolved in MeCN/DMSO 9:1 to achieve a final concentration of 0.5 mg/mL. The mobile phase A was 50 mM ammonium acetate adjusted to pH 7.4 with 10% NaOH, while mobile phase B was iPrOH. […] After injecting 3 μL of the sample, a linear gradient from 100% A to 30% iPrOH in 5.4 min was applied. From 5.4 to 18 min, 30% iPrOH was kept, followed by switching back to 100% A in 1.0 min and a re-equilibration time of 6 min.

Structure (SMILES) | chromatographic logD [1] | Kd (VCB protein) [µM] | IC50 (VCB protein) [µM] | fraction unbound at 0.5 mg/mL (human serum albumin)
Cc1cc(-c2scnc2C)ccc1CNC(=O)[C@@H]1C[C@@H](O)CN1C(=O)[C@@H](NC(=O)C1(C#N)CC1)C(C)(C)C [Compound 2, (2S,4R)-1-((S)-2-(1-Cyanocyclopropane-1-carboxamido)-3,3-dimethylbutanoyl)-4-hydroxy-N-(2-methyl-4-(4-methylthiazol-5-yl)benzyl)pyrrolidine-2-carboxamide] | 2 | 0.149 ± 0.028 | 0.668 ± 0.033 | 0.1
COc1cc(-c2scnc2C)ccc1CNC(=O)[C@@H]1C[C@@H](O)CN1C(=O)[C@@H](NC(=O)C1(C#N)CC1)C(C)(C)C [Compound 3, (2S,4R)-1-((S)-2-(1-Cyanocyclopropane-1-carboxamido)-3,3-dimethylbutanoyl)-4-hydroxy-N-(2-methoxy-4-(4-methylthiazol-5-yl)benzyl)pyrrolidine-2-carboxamide] | 1.9 | 0.183 ± 0.022 | 0.837 ± 0.035 | 0.12
Cc1cc(-c2scnc2C)cc(C)c1CNC(=O)[C@@H]1C[C@@H](O)CN1C(=O)[C@@H](NC(=O)C1(C#N)CC1)C(C)(C)C [Compound 10, (2S,4R)-1-((S)-2-(1-Cyanocyclopropane-1-carboxamido)-3,3-dimethylbutanoyl)-N-(2,6-dimethyl-4-(4-methylthiazol-5-yl)benzyl)-4-hydroxypyrrolidine-2-carboxamide] | 2.2 | 4.11 ± 0.56 | 21.1 ± 2.18 | 0.1
COc1cc(-c2scnc2C)cc(OC)c1CNC(=O)[C@@H]1C[C@@H](O)CN1C(=O)[C@@H](NC(=O)C1(C#N)CC1)C(C)(C)C [Compound 11, (2S,4R)-1-((S)-2-(1-Cyanocyclopropane-1-carboxamido)-3,3-dimethylbutanoyl)-N-(2,6-dimethoxy-4-(4-methylthiazol-5-yl)benzyl)-4-hydroxypyrrolidine-2-carboxamide] | 2 | 6.24 ± 0.62 | 32.1 ± 2.15 | 0.12
Cc1ncsc1-c1cc(F)c(CNC(=O)[C@@H]2C[C@@H](O)CN2C(=O)[C@@H](NC(=O)C2(C#N)CC2)C(C)(C)C)c(F)c1 [Compound 12, (2S,4R)-1-((S)-2-(1-Cyanocyclopropane-1-carboxamido)-3,3-dimethylbutanoyl)-N-(2,6-difluoro-4-(4-methylthiazol-5-yl)benzyl)-4-hydroxypyrrolidine-2-carboxamide] | 1.9 | 2.13 ± 0.15 | 11 ± 0.747 | 0.14
Cc1ncsc1-c1cc(Cl)c(CNC(=O)[C@@H]2C[C@@H](O)CN2C(=O)[C@@H](NC(=O)C2(C#N)CC2)C(C)(C)C)c(Cl)c1 [Compound 13, (2S,4R)-1-((S)-2-(1-Cyanocyclopropane-1-carboxamido)-3,3-dimethylbutanoyl)-N-(2,6-dichloro-4-(4-methylthiazol-5-yl)benzyl)-4-hydroxypyrrolidine-2-carboxamide] | 2.4 | 8.15 ± 0.68 | 42 ± 1.92 | 0.09
Cc1cc(-c2scnc2C)c(C)cc1CNC(=O)[C@@H]1C[C@@H](O)CN1C(=O)[C@@H](NC(=O)C1(C#N)CC1)C(C)(C)C [Compound 14, (2S,4R)-1-((S)-2-(1-Cyanocyclopropane-1-carboxamido)-3,3-dimethylbutanoyl)-N-(2,5-dimethyl-4-(4-methylthiazol-5-yl)benzyl)-4-hydroxypyrrolidine-2-carboxamide] | 2.2 | 0.528 ± 0.016 | 2.74 ± 0.122 | 0.1
COc1c(CNC(=O)[C@@H]2C[C@@H](O)CN2C(=O)[C@@H](NC(=O)C2(C#N)CC2)C(C)(C)C)ccc(-c2scnc2C)c1F [Compound 21, (2S,4R)-1-((S)-2-(1-Cyanocyclopropane-1-carboxamido)-3,3-dimethylbutanoyl)-N-(3-fluoro-2-methoxy-4-(4-methylthiazol-5-yl)benzyl)-4-hydroxypyrrolidine-2-carboxamide] | 2.1 |  |  | 0.11
Cc1ncsc1-c1cc2c(cc1F)[C@@H](NC(=O)[C@@H]1C[C@@H](O)CN1C(=O)[C@@H](NC(=O)C1(F)CC1)C(C)(C)C)CC2 [Compound 36, (2S,4R)-N-((S)-6-Fluoro-5-(4-methylthiazol-5-yl)-2,3-dihydro-1H-inden-1-yl)-1-((S)-2-(1-fluorocyclopropane-1-carboxamido)-3,3-dimethylbutanoyl)-4-hydroxypyrrolidine-2-carboxamide] | 2.3 | 2.55 ± 0.51 | 10.6 ± 2.03 | 
Cc1ncsc1-c1ccc(CNC(=O)[C@@H]2C[C@@H](O)CN2C(=O)[C@@H](NC(=O)C2(F)CC2)C(C)(C)C)cc1 [Compound 38, (2S,4R)-1-((S)-2-(1-Fluorocyclopropane-1-carboxamido)-3,3-dimethylbutanoyl)-4-hydroxy-N-(4-(4-methylthiazol-5-yl)benzyl)pyrrolidine-2-carboxamide, reference compound] | 1.8 |  |  | 0.14

Continued, values first:

chromatographic logD [1] | Kd (VCB protein) [µM] | IC50 (VCB protein) [µM] | fraction unbound at 0.5 mg/mL (human serum albumin) | Structure (SMILES)
1.9 | 0.297 ± 0.034 | 1.36 ± 0.056 | 0.12 | Cc1ncsc1-c1ccc(CNC(=O)[C@@H]2C[C@@H](O)CN2C(=O)[C@@H](NC(=O)C2(C#N)CC2)C(C)(C)C)c(F)c1 [Compound 4, (2S,4R)-1-((S)-2-(1-Cyanocyclopropane-1-carboxamido)-3,3-dimethylbutanoyl)-N-(2-fluoro-4-(4-methylthiazol-5-yl)benzyl)-4-hydroxypyrrolidine-2-carboxamide]
2.2 | 0.245 ± 0.02 | 1.14 ± 0.131 | 0.09 | Cc1ncsc1-c1ccc(CNC(=O)[C@@H]2C[C@@H](O)CN2C(=O)[C@@H](NC(=O)C2(C#N)CC2)C(C)(C)C)c(Cl)c1 [Compound 5, (2S,4R)-N-(2-Chloro-4-(4-methylthiazol-5-yl)benzyl)-1-((S)-2-(1-cyanocyclopropane-1-carboxamido)-3,3-dimethylbutanoyl)-4-hydroxypyrrolidine-2-carboxamide]
2 | 0.496 ± 0.062 | 2.26 ± 0.073 | 0.11 | Cc1cc(CNC(=O)[C@@H]2C[C@@H](O)CN2C(=O)[C@@H](NC(=O)C2(C#N)CC2)C(C)(C)C)ccc1-c1scnc1C [Compound 6, (2S,4R)-1-((S)-2-(1-Cyanocyclopropane-1-carboxamido)-3,3-dimethylbutanoyl)-4-hydroxy-N-(3-methyl-4-(4-methylthiazol-5-yl)benzyl)pyrrolidine-2-carboxamide]
1.9 | 0.163 ± 0.022 | 0.742 ± 0.014 | 0.13 | COc1cc(CNC(=O)[C@@H]2C[C@@H](O)CN2C(=O)[C@@H](NC(=O)C2(C#N)CC2)C(C)(C)C)ccc1-c1scnc1C [Compound 7, (2S,4R)-1-((S)-2-(1-Cyanocyclopropane-1-carboxamido)-3,3-dimethylbutanoyl)-4-hydroxy-N-(3-methoxy-4-(4-methylthiazol-5-yl)benzyl)pyrrolidine-2-carboxamide]
1.9 | 0.097 ± 0.011 | 0.444 ± 0.018 | 0.12 | Cc1ncsc1-c1ccc(CNC(=O)[C@@H]2C[C@@H](O)CN2C(=O)[C@@H](NC(=O)C2(C#N)CC2)C(C)(C)C)cc1F [Compound 8, (2S,4R)-1-((S)-2-(1-Cyanocyclopropane-1-carboxamido)-3,3-dimethylbutanoyl)-N-(3-fluoro-4-(4-methylthiazol-5-yl)benzyl)-4-hydroxypyrrolidine-2-carboxamide]
2.1 | 0.22 ± 0.011 | 1.03 ± 0.127 | 0.09 | Cc1ncsc1-c1ccc(CNC(=O)[C@@H]2C[C@@H](O)CN2C(=O)[C@@H](NC(=O)C2(C#N)CC2)C(C)(C)C)cc1Cl [Compound 9, (2S,4R)-N-(3-Chloro-4-(4-methylthiazol-5-yl)benzyl)-1-((S)-2-(1-cyanocyclopropane-1-carboxamido)-3,3-dimethylbutanoyl)-4-hydroxypyrrolidine-2-carboxamide]
